# Reference: patent EP0394122A2, “Use of tetracyclines to manufacture a medicament for the treatment and prevention of AIDS” (priority 1989, dated 1990)
# Columns and labels:
# Format in all cases: cell-based
# [1] = tested on: reverse transcriptase du virus HIV; experiment: Reverse transcriptase activity in culture supernatant of infected, protected CEM cells (virus production)
# Excerpt: Chaque échantillon est divisé en 2 parties, l'une recevant à nouveau le produit étudié et l'autre cultivée en l'absence de produit.
# Les cellules sont cultivées pendant 2 mois.
# Les cellules infectées traitées ou non de manière continue par la minocycline ou la doxycycline ont été examinées en ce qui concerne la production de virus. La technique utilisée pour la détermination virale a été celle du dosage de la reverse transcriptase du virus HIV.
# L'activité de la reverse transcriptase est mesurée directement sur 50 µl de surnageant de culture. 10 µl de tampon contenant 0,5 M de KCl, 5 mM de dithiotreitol (DTT) et 0,5 % de Triton X-100 sont ajoutés à tous les micropuits contenant les 50 µl de surnageant à tester. 40 µl de tampon contenant 1,25 mM d'éthylène glycol-bis(β-aminoéthyl éther) (EGTA), 0,125 M de Tris.HCl pH 7,8, 12,5 mM de MgCl₂, 3 µCi de (³H) Thymidine triphosphate (TTP), 0,05 DO₂₆₀ d'acide polyadénylique - acide thymidylique (poly rA-oligo dT) sont ajoutés ensuite. La microplaque est couverte au moyen d'un film plastique et incubée 60 minutes à 37°C.
# On arrête la réaction en ajoutant 20 µl d'une solution glacée de 120 mM de Na₄P₂O₇ dans 60 % d'acide trichloracétique et les échantillons sont placés 15 minutes sur un lit de glace.
# Les précipités sont filtrés sur fibres de verre en utilisant un laveur de cellules (Skatron) et les filtres sont lavés avec une solution de 12 mM de Na₄P₂O₇ dans 5 % d'acide trichloracétique.
# Les filtres sont séchés et la radioactivité est comptée après ajout d'un liquide scintillant. Les essais sont faits en triple.
# [2] = tested on: virus HIV (souche LAV-BRU); experiment: Inhibition of the cytopathogenic effect of HIV in infected human lymphocyte culture (MTT viability); settings: 21 days after infection, human lymphocytes
# Protocol: (§1) La source des leucocytes humains est un stock congelé en N₂ liquide (100 x 10⁶ cellules/ampoule) de leucocytes obtenus sur cytaphérèse d'individus (donneurs) sains. Au moment de l'essai, les cellules sont décongelées, mises en suspension dans 80 % de sérum de veau foetal (SVF) et 20 % de diméthylsulfoxyde et centrifugées à 1000 rpm (10 minutes). Le culot est mis en suspension dans un milieu RPMI [contenant 10 % Lymphocult (Interleukine 2 en provenance de Biotest Diagnostic), 10 % de SVF, pénicilline et streptomycine, respectivement 40 U/ml et 40 µg/ml], à raison de 1 x 10⁶ cellules/ml. Habituellement, on utilise un flacon de culture cellulaire contenant 40 à 60 ml de cette suspension cellulaire. Les cellules sont incubées 4 jours en présence de phytohémagglutinine PHA (0,1 % DIFCO), à 37°C sous une atmosphère contenant 95 % d'air et 5 % de gaz carbonioue. Les cellules sont alors centrifugées, lavées une fois dans du milieu frais (ci-dessus) et remises en suspension dans le même milieu à 1 x 10⁶ cellules/ml [(RPMI 10 % de SVF, 10 % de Lymphocult-antibiotiques ci-dessus) mais contenant 10 U/ml d'anticorps anti-interferon (IFN α) 5 µg/ml de prolybrène.
# (§2) 200 µl de cette suspension cellulaire (200.000 cellules) sont déposés dans des puits d'une microplaque de cultures (à 96 puits). A chaque puits, on ajoute 25 µl du produit à tester [dilué 10 fois dans du tampon phosphate isotonique (TPI)] ou 25 µl du solvant TPI pour le contrôle. L'essai est fait en 2 séries : sur cellules infectées (pour déterminer l'activité antivirale) et sur cellules non infectées pour déterminer l'activité antiproliférative (cytotoxicité). On infecte alors avec 25 µl du virus HIV (souche LAV-BRU), alors que l'autre série reçoit (par puits) 25 µl du milieu (ci-dessus). Les cultures sont incubées 7 jours à 37°C (95 % d'air, 5 % de CO₂). 200 µl de surnageant sont alors prélevés, rejetés ou utilisés pour la détermination de l'activité transcriptase inverse. Les cellules du fond (sous 50 µl) sont alors soit testées pour leur viabilité (test MTT), soit additionnées de 200 µl de milieu frais (ci-dessus). Dans ce dernier cas, l'incubation est prolongée pendant encore 7 jours (test au jour 14). L'opération peut être répétée une semaine après (test au jour 21).
# [3] = tested on: lymphocytes humains; experiment: Antiproliferative activity (cytotoxicity) on non-infected human lymphocytes (MTT viability); settings: day 21
# Protocol: as §1, §2
# [4] = product present du jour 0 au jour 18 (1,2 µg/ml), day 20 after infection
# [5] = product present du jour 0 au jour 18 (1,2 µg/ml), day 39 after infection
# [6] = product present du jour 0 au jour 18 (1,2 µg/ml), day 42 after infection
# [7] = product present du jour 0 au jour 18 (1,2 µg/ml), day 46 after infection
# [8] = product present du jour 0 au jour 18 (1,2 µg/ml), day 49 after infection
# [9] = product present du jour 0 au jour 18 (1,2 µg/ml), day 53 after infection
# [10] = product present du jour 0 au jour 18 (1,2 µg/ml), day 56 after infection
# [11] = product present du jour 0 au jour 18 (1,2 µg/ml), day 60 after infection
# [12] = product present du jour 0 au jour 18 (1,2 µg/ml), day 80 after infection
# [13] = product present du jour 0 à la fin de l'expérience (1,2 µg/ml), day 20 after infection
# [14] = product present du jour 0 à la fin de l'expérience (1,2 µg/ml), day 39 after infection
# [15] = product present du jour 0 à la fin de l'expérience (1,2 µg/ml), day 42 after infection
# [16] = product present du jour 0 à la fin de l'expérience (1,2 µg/ml), day 46 after infection
# [17] = product present du jour 0 à la fin de l'expérience (1,2 µg/ml), day 49 after infection
# [18] = product present du jour 0 à la fin de l'expérience (1,2 µg/ml), day 53 after infection
# [19] = product present du jour 0 à la fin de l'expérience (1,2 µg/ml), day 56 after infection
# [20] = product present du jour 0 à la fin de l'expérience (1,2 µg/ml), day 60 after infection
# [21] = product present du jour 0 à la fin de l'expérience (1,2 µg/ml), day 80 after infection
Compound,"Activité de la reverse transcriptase [1, 4] [coups/mn x 10⁻³]","Activité de la reverse transcriptase [1, 5] [coups/mn x 10⁻³]","Activité de la reverse transcriptase [1, 6] [coups/mn x 10⁻³]","Activité de la reverse transcriptase [1, 7] [coups/mn x 10⁻³]","Activité de la reverse transcriptase [1, 8] [coups/mn x 10⁻³]","Activité de la reverse transcriptase [1, 9] [coups/mn x 10⁻³]","Activité de la reverse transcriptase [1, 10] [coups/mn x 10⁻³]","Activité de la reverse transcriptase [1, 11] [coups/mn x 10⁻³]","Activité de la reverse transcriptase [1, 12] [coups/mn x 10⁻³]","Activité de la reverse transcriptase [1, 13] [coups/mn x 10⁻³]","Activité de la reverse transcriptase [1, 14] [coups/mn x 10⁻³]","Activité de la reverse transcriptase [1, 15] [coups/mn x 10⁻³]","Activité de la reverse transcriptase [1, 16] [coups/mn x 10⁻³]","Activité de la reverse transcriptase [1, 17] [coups/mn x 10⁻³]","Activité de la reverse transcriptase [1, 18] [coups/mn x 10⁻³]","Activité de la reverse transcriptase [1, 19] [coups/mn x 10⁻³]","Activité de la reverse transcriptase [1, 20]","Activité de la reverse transcriptase [1, 21] [coups/mn x 10⁻³]","Cellules infectées Densité optique ([2]; 0,04 µg/ml)","Cellules infectées Densité optique ([2]; 0,12 µg/ml)",other results
"CN(C)c1ccc(O)c2c1C[C@H]1C[C@H]3[C@H](N(C)C)C(O)=C(C(N)=O)C(=O)[C@@]3(O)C(O)=C1C2=O [Exemple 5, minocycline]",27,21,37,19,21,17,3,2,3,25,33,33,29,37,14,2,2 coups/mn x 10⁻³,5,"0,530","0,435","Cellules infectées Densité optique ([2]; 0,37 µg/ml): 0,640; Cellules infectées Densité optique ([2]; 10 µg/ml): 0,540; Cellules infectées Densité optique ([2]; 1,11 µg/ml): 0,835; Cellules infectées Densité optique ([2]; 3,33 µg/ml): 0,750; Cellules non infectées Densité optique ([3]; 0,04 µg/ml): 0,836; Cellules non infectées Densité optique ([3]; 0,12 µg/ml): 0,775; Cellules non infectées Densité optique ([3]; 0,37 µg/ml): 0,850; Cellules non infectées Densité optique ([3]; 10 µg/ml): 0,833; Cellules non infectées Densité optique ([3]; 1,11 µg/ml): 0,980; Cellules non infectées Densité optique ([3]; 3,33 µg/ml): 0,900"
doxycycline [Exemple 2],21,30,31,21,24,14,2,3,2,25,26,31,27,18,10,2,"1,4 coups/mn x 10⁻³",2,"0,530","0,590","Cellules infectées Densité optique ([2]; 0,37 µg/ml): 0,550; Cellules infectées Densité optique ([2]; 10 µg/ml): 0,125; Cellules infectées Densité optique ([2]; 1,11 µg/ml): 0,773; Cellules non infectées Densité optique ([3]; 0,04 µg/ml): 0,775; Cellules non infectées Densité optique ([3]; 0,12 µg/ml): 0,765; Cellules non infectées Densité optique ([3]; 0,37 µg/ml): 0,853; Cellules non infectées Densité optique ([3]; 10 µg/ml): 0,103; Cellules non infectées Densité optique ([3]; 1,11 µg/ml): 0,835; Cellules non infectées Densité optique ([3]; 3,33 µg/ml): 0,670"
